{"source": "patent US20100273783A1", "about": "“Compositions and Methods for Treating and Preventing Overactive Bladder and Conditions Associated Therewith” (OPTMED, INC., priority 2009, published 2010)", "key": {"[1]": {"target": "T1, M-1 receptors (Homo sapiens, UniProt P11229)", "T1 sequence (P11229 1-460)": "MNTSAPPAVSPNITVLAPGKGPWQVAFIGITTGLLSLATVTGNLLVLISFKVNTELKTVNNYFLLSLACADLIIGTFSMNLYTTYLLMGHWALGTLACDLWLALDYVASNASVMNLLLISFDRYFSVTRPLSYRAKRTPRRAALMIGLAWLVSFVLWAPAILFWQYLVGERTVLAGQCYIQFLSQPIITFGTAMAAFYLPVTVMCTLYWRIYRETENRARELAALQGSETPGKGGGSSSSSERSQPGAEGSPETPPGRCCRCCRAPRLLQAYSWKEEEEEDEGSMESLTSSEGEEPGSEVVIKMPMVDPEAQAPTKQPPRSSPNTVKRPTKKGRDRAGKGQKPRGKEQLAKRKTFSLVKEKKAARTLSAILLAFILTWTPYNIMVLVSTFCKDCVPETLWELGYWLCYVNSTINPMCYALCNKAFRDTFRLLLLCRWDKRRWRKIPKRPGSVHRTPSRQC", "settings": "cited from earlier work"}, "[2]": {"settings": "cited from earlier work; for adverse effects stated in the background text: no dose given"}, "[3]": {"test_system": "overactive bladder (OAB)", "experiment": "Case reports of subjects with OAB treated with local diazepam", "format": "in vivo, human", "experimental": "A person had been suffering from symptoms consistent with OAB for several months. Following a confirmatory diagnosis of OAB, the subject was instructed to use vaginal suppositories containing 20 mg of diazepam in a glycerine base three times a day. […] The subject continues to do well on a maintenance dose of 20 mg once or twice a day.\nA person had been suffering from symptoms consistent with OAB for several months. A diagnosis of OAB was confirmed by an urologist. A nurse then administered intraurethrally to the subject 2 ml of a gel formulation containing 10 mg/ml of diazepam in 2% methylcellulose, providing a total dose of 20 mg of diazepam. […] This subject is able to treat themself at home using the same type of formulation and the same route of administration up to 3 times per day as needed.\nHis symptoms were not relieved with high doses of oral diazepam but were well-controlled by intraurethral instillations of 2 ml of diazepam in a gel formulation containing 10 mg/ml of diazepam in hydroethylcellulose, providing a total of 20 mg of diazepam administered at bedtime.\nA person with advanced dementia suffered from OAB symptoms including nocturia and urge incontinence. Despite the use of incontinence pads, the subject would frequently arise throughout the night without requesting assistance to go the bathroom. This led to numerous falls."}, "[4]": {"test_system": "anesthetized rats", "experiment": "Cystometries (isovolumetric bladder contractions) in anesthetized rats", "format": "in vivo", "experimental": "Effect of diazepam administered intravenously and intravaginally on cystometries in anesthetized rats.\nMethods: Female rats were anesthetized with urethane (1.3 g/kg intraperitoneally) given as a divided dose of 80% initially and 20% 15 minutes later. Body temperature was maintained at 37±2° C. throughout the experiment. A catheter was inserted into the bladder through the urethra. Then, the urethra was ligated at the level of the urinary meatus. After an abdominal incision, the ureters were also ligated. The jugular vein was catheterized to allow administration of test compounds. The bladder catheter was connected via a T-tube to a strain gauge to measure intravesicular pressure. Isovolumetric bladder contractions were induced by stepwise injections of physiological saline at room temperature (100 μl every 5 min) until stable rhythmic bladder contractions occurred. After stabilization and a control period of at least 30 min, characterized by stable and reproducible bladder contractions (used as basal values), test substance or vehicle was administered i.v. (as a bolus under a volume of 200 μl) or i.vag. (under a volume of 100 μl using a syringe). The drug effects were evaluated for 1 hour following the end of administration. Each animal received one dose of one test substance."}, "[5]": {"settings": "in vivo; cited from earlier work"}, "[6]": {"settings": "Example 6, intraurethral 1 ml gel 20 mg/ml in 3% hydroxyethylcellulose three times per day"}, "[7]": {"settings": "intravaginal, vs basal values, through 30 minutes post administration"}}, "note": "Where two headings read alike, the source gives them in different places."}
{"smiles": "NC(=O)C(c1ccccc1)(c1ccccc1)[C@@H]1CCN(CCc2ccc3c(c2)CCO3)C1", "note": "[darifenacin]", "values": [{"measurement": "affinity for M-1 receptors", "setting": "[1]", "value": "reduced affinity for M-1 receptors"}, {"measurement": "Adverse Events", "setting": "[2]; 7.5 mg per day, constipation", "value": "constipation"}, {"measurement": "Adverse Events", "setting": "[2]; 7.5 mg per day, dry mouth", "value": "dry mouth"}, {"measurement": "Adverse Events", "setting": "[2]; 15 mg per day, constipation", "value": "constipation"}, {"measurement": "Adverse Events", "setting": "[2]; 15 mg per day, dry mouth", "value": "dry mouth"}, {"measurement": "Adverse Events", "setting": "[2]; 15 mg per day, dyspepsia", "value": "dyspepsia"}]}
{"smiles": "CN1C(=O)CN=C(c2ccccc2)c2cc(Cl)ccc21", "note": "[diazepam, 7-chloro-1,3-dihydro-1-methyl-5-phenyl-2H-1,4-benzodiazepin-2-one]", "values": [{"measurement": "symptoms of urgency, frequency and incontinence", "setting": "[3]; Example 3, person, vaginal suppositories 20 mg in glycerine base three times a day", "value": "greatly reduced"}, {"measurement": "cognitive impairment", "setting": "[3]; Example 3, vaginal suppositories 20 mg in glycerine base three times a day", "value": "No cognitive impairment was observed or reported"}, {"measurement": "cognitive impairment", "setting": "[3]; Example 4, intraurethral 2 ml gel 10 mg/ml in 2% methylcellulose (20 mg)", "value": "without causing any observable cognitive impairment"}, {"measurement": "OAB symptoms", "setting": "[3]; Example 4, person, intraurethral 2 ml gel 10 mg/ml in 2% methylcellulose (20 mg)", "value": "reduced OAB symptoms significantly"}, {"measurement": "adverse effects", "setting": "[3]; Example 5, intraurethral 2 ml gel 10 mg/ml (20 mg) at bedtime", "value": "did not suffer any adverse effects"}, {"measurement": "symptoms (nocturia, nighttime urinary incontinence)", "setting": "[3]; Example 5, intraurethral 2 ml gel 10 mg/ml in hydroethylcellulose (20 mg) at bedtime", "value": "well-controlled"}, {"measurement": "symptoms (nocturia, nighttime urinary incontinence)", "setting": "[3]; Example 5, person, high doses of oral diazepam", "value": "not relieved"}, {"measurement": "adverse effects", "setting": "[3]; [6]", "value": "no apparent adverse effects"}, {"measurement": "cognitive impairment", "setting": "[3]; [6]", "value": "without causing cognitive impairment"}, {"measurement": "daytime urgency", "setting": "[3]; [6]", "value": "reduced daytime urgency"}, {"measurement": "nighttime falls", "setting": "[3]; [6]", "value": "near-absence of nighttime falls"}, {"measurement": "nocturia (sleep through the night)", "setting": "[3]; [6]", "value": "able to sleep in bed throughout the night without arising to urinate"}, {"measurement": "cognitive impairments", "setting": "[3]; Example 6, person, oral antimuscarinic and oral diazepam", "value": "led to cognitive impairments which increased the number of falls from bed"}, {"measurement": "reductions in micturition frequency and amplitude, intravaginal compared with intravenous", "setting": "[4]; intravaginal vs intravenous administration", "value": "comparable to those achieved by intraveneous administration"}, {"measurement": "micturition amplitude (threshold for voiding)", "setting": "[4]; [7]", "value": "significant reductions"}, {"measurement": "micturition frequency", "setting": "[4]; [7]", "value": "significant reductions"}]}
{"smiles": "CC(C)C(=O)Oc1ccc(CO)cc1[C@H](CCN(C(C)C)C(C)C)c1ccccc1", "note": "[fesoterodine]", "values": [{"measurement": "Adverse Events", "setting": "[2]; 4 mg or 8 mg QD, constipation", "value": "constipation"}, {"measurement": "Adverse Events", "setting": "[2]; 4 mg or 8 mg QD, dry mouth", "value": "dry mouth"}, {"measurement": "Adverse Events", "setting": "[2]; 4 mg or 8 mg QD, urinary tract infection", "value": "urinary tract infection"}, {"measurement": "adverse effects stated in the background text", "setting": "[2]", "value": "associated with constipation, dry mouth and sometimes urinary tract infection"}]}
{"smiles": "CCN(CC)CC#CCOC(=O)C(O)(c1ccccc1)C1CCCCC1", "note": "(stereo not drawn) [oxybutynin chloride]", "values": [{"measurement": "Adverse Events", "setting": "[2]; 3.9 mg transdermal per day, dry mouth", "value": "dry mouth"}, {"measurement": "Adverse Events", "setting": "[2]; 3.9 mg transdermal per day, erythema", "value": "erythema"}, {"measurement": "Adverse Events", "setting": "[2]; 3.9 mg transdermal per day, pruritis", "value": "pruritis"}, {"measurement": "adverse effects stated in the background text", "setting": "[2]", "value": "highly associated with adverse cognitive effects and effects on sleep architecture and quality"}]}
{"smiles": "O=C(O[C@H]1C[C@H]2CC[C@@H](C1)[N+]21CCCC1)C(O)(c1ccccc1)c1ccccc1", "note": "[trospium chloride]", "values": [{"measurement": "Adverse Events", "setting": "[2]; 20 mg × 2 per day, constipation", "value": "constipation"}, {"measurement": "Adverse Events", "setting": "[2]; 20 mg × 2 per day, dry mouth", "value": "dry mouth"}, {"measurement": "fraction excreted completely active", "setting": "[5]", "value": 60, "unit": "%"}]}
